Assays:
[1] = in vitro; settings: mouse, liver microsomes
[2] = in vitro; settings: human, Caco-2

half-life [1]: 30 min | Papp A→B [2]: 8.8 ×10⁻⁶ cm/s
SMILES: Cc1[nH]nc(-c2ccncc2)c1-c1ccc(-c2cccc(S(N)(=O)=O)c2)c(C2CC2)c1
